Patent US20260306491A1, “EGFR INHIBITOR FOR TREATING CANCERS COMPRISING ATYPICAL EGFR MUTATIONS” (ORIC Pharmaceuticals, Inc., priority 2023, published 2026)

Key:
[1] = Clinical study in NSCLC subjects: treatment-related adverse events (Example 10); type: in vivo, human; settings: oral hemifumarate
Description: A clinical study was conducted using Compound I in human subjects having non-small cell lung cancer (NSCLC) comprising EGFR exon 20 insertion mutations, HER2 exon 20 insertion mutations, or HER2 amplification or overexpression. A total of 50 human subjects having non-small cell lung cancer comprising one or more EGFR exon 20 insertion mutations, HER2 exon 20 insertion mutations, or HER2 amplification or overexpression were enrolled in the study as of Jul. 31, 2023 with data collected as of Sep. 26, 2023. The subjects were enrolled into one of ten dosing cohorts that were each orally administered Compound I in the form of a hemifumarate salt as shown in Table 13 (QD=once per day; BID=twice per day).
The TRAEs that occurred in equal to or greater than 10% of subjects in the study are set forth in Tables 15 to 18 (TDD=total daily dose; n=number; N/A=not applicable; the term rash includes the following terms: acne, dermatitis, dermatitis acneiform, eczema, hand dermatitis, and rash).

[2] = system: HER2 exon 20 mutated NSCLC; experiment: Clinical evaluation in one subject (Example 12); type: in vivo, human; settings: hemifumarate, 30 mg BID
Description: A subject having HER2 exon 20 mutated NSCLC was enrolled in a clinical study relating to Compound I. The cancer in the subject had been previously treated with pemetrexed/cisplatin, ipilimumab/nivolumab/carboplatin, and pemetrexed/carboplatin/pembrolizumab. The subject was enrolled in a dosing cohort that received 30 mg BID of Compound I in the form of a hemifumarate salt.

For C=CC(=O)Nc1cc(Nc2cc(N3OCC[C@@H]3c3cc(F)cc(F)c3)ncn2)c(OC)cc1N1CCC(N2CCN(C3CC3)CC2)CC1 [Compound I, N-[2-[4-(4-cyclopropyl-1-piperazinyl)-1-piperidinyl]-5-[[6-[(3R)-3-(3,5-difluorophenyl)-2-isoxazolidinyl]-4-pyrimidinyl]amino]-4-methoxyphenyl]-2-propenamide], the “Stomatitis, Grade 2, number of subjects” value ([1]; <45 mg TDD (n = 18)) was 2 n, the “Vomiting, Grade 1” value ([1]; <45 mg TDD (n = 18)) was “(11) %” and the “Vomiting, Grade 1, number of subjects” value ([1]; <45 mg TDD (n = 18)) was 2 n. For the same molecule, the “Decreased appetite, All Grades” value ([1]; all doses) was “(14) %”, the “Decreased appetite, All Grades, number of subjects” value ([1]; all doses) was 7 n and the “Diarrhea, All Grades” value ([1]; all doses) was “(40) %”. For the same molecule, the “Diarrhea, All Grades, number of subjects” value ([1]; all doses) was 20 n, the Dose discontinuations ([1]; all doses) was “(4) %” and the “Dose discontinuations, number” value ([1]; all doses) was 2 n. The Dose reductions ([1]; all doses) was “(16) %”, the “Dose reductions, number” value ([1]; all doses) was 8 n and the “Nausea, All Grades” value ([1]; all doses) was “(16) %”. For the same molecule, the “Nausea, All Grades, number of subjects” value ([1]; all doses) was 8 n, the “Paronychia, All Grades” value ([1]; all doses) was “(28) %” and the “Paronychia, All Grades, number of subjects” value ([1]; all doses) was 14 n. For the same molecule, the “Pruritis, All Grades” value ([1]; all doses) was “(22) %”, the “Pruritis, All Grades, number of subjects” value ([1]; all doses) was 11 n and the “Rash, All Grades” value ([1]; all doses) was “(54) %”. The “Rash, All Grades, number of subjects” value ([1]; all doses) was 27 n, the “Stomatitis, All Grades” value ([1]; all doses) was “(30) %” and the “Stomatitis, All Grades, number of subjects” value ([1]; all doses) was 15 n. For the same molecule, the “Vomiting, All Grades” value ([1]; all doses) was “(14) %”, the “Vomiting, All Grades, number of subjects” value ([1]; all doses) was 7 n and the “Treatment-related adverse events (TRAEs), grade” value ([1]; each dose level) was “Grade 1 and 2 treatment-related adverse events (TRAEs) at each dose level”. The “Diarrhea, Grade 1” value ([1]; ≥75 mg TDD (n = 9)) was 22%, the “Diarrhea, Grade 1, number of subjects” value ([1]; ≥75 mg TDD (n = 9)) was 2 n and the “Diarrhea, Grade 2” value ([1]; ≥75 mg TDD (n = 9)) was 22%. The “Diarrhea, Grade 2, number of subjects” value ([1]; ≥75 mg TDD (n = 9)) was 2 n, the “Diarrhea, Grade 3” value ([1]; ≥75 mg TDD (n = 9)) was 11% and the “Diarrhea, Grade 3, number of subjects” value ([1]; ≥75 mg TDD (n = 9)) was 1 n. For the same molecule, the Dose reductions ([1]; ≥75 mg TDD (n = 9)) was 33%, the “Dose reductions, number” value ([1]; ≥75 mg TDD (n = 9)) was 3 n and the “Nausea, Grade 1” value ([1]; ≥75 mg TDD (n = 9)) was 11%. For the same molecule, the “Nausea, Grade 1, number of subjects” value ([1]; ≥75 mg TDD (n = 9)) was 1 n, the “Nausea, Grade 2” value ([1]; ≥75 mg TDD (n = 9)) was 11% and the “Nausea, Grade 2, number of subjects” value ([1]; ≥75 mg TDD (n = 9)) was 1 n. The “Nausea, Grade 3” value ([1]; ≥75 mg TDD (n = 9)) was 11%, the “Nausea, Grade 3, number of subjects” value ([1]; ≥75 mg TDD (n = 9)) was 1 n and the “Paronychia, Grade 1” value ([1]; ≥75 mg TDD (n = 9)) was 22%. The “Paronychia, Grade 1, number of subjects” value ([1]; ≥75 mg TDD (n = 9)) was 2 n, the “Paronychia, Grade 2” value ([1]; ≥75 mg TDD (n = 9)) was 11% and the “Paronychia, Grade 2, number of subjects” value ([1]; ≥75 mg TDD (n = 9)) was 1 n. The “Pruritis, Grade 1” value ([1]; ≥75 mg TDD (n = 9)) was 11%, the “Pruritis, Grade 1, number of subjects” value ([1]; ≥75 mg TDD (n = 9)) was 1 n and the “Pruritis, Grade 2” value ([1]; ≥75 mg TDD (n = 9)) was 11%. For the same molecule, the “Pruritis, Grade 2, number of subjects” value ([1]; ≥75 mg TDD (n = 9)) was 1 n, the “Rash, Grade 1” value ([1]; ≥75 mg TDD (n = 9)) was 44% and the “Rash, Grade 1, number of subjects” value ([1]; ≥75 mg TDD (n = 9)) was 4 n. The “Rash, Grade 2” value ([1]; ≥75 mg TDD (n = 9)) was 11%, the “Rash, Grade 2, number of subjects” value ([1]; ≥75 mg TDD (n = 9)) was 1 n and the “Stomatitis, Grade 1” value ([1]; ≥75 mg TDD (n = 9)) was 22%. The “Stomatitis, Grade 1, number of subjects” value ([1]; ≥75 mg TDD (n = 9)) was 2 n, the “Stomatitis, Grade 2” value ([1]; ≥75 mg TDD (n = 9)) was 22% and the “Stomatitis, Grade 2, number of subjects” value ([1]; ≥75 mg TDD (n = 9)) was 2 n. The “Vomiting, Grade 1” value ([1]; ≥75 mg TDD (n = 9)) was 11%, the “Vomiting, Grade 1, number of subjects” value ([1]; ≥75 mg TDD (n = 9)) was 1 n and the “Vomiting, Grade 2” value ([1]; ≥75 mg TDD (n = 9)) was 11%. The “Vomiting, Grade 2, number of subjects” value ([1]; ≥75 mg TDD (n = 9)) was 1 n, the “Vomiting, Grade 3” value ([1]; ≥75 mg TDD (n = 9)) was 11% and the “Vomiting, Grade 3, number of subjects” value ([1]; ≥75 mg TDD (n = 9)) was 1 n. For the same molecule, the Non-target lesions response ([2]; after cycle 1) was “non-CR/non-PD”, the “Reduction of all target lesions” value ([2]; after cycle 1 (28 days)) was 100% and the Tumor response ([2]; after cycle 1, confirmed end of cycle 2) was “partial response”. For the same molecule, the “Duration of dosing at data cutoff” value ([2]; continuing) was “on dosing cycle 3”, the EGFR-related adverse events ([2]; data cutoff Sep. 26, 2023) was “Grade 2 rash and Grade 2 nausea” and the “Reduction of all target lesions” value ([2]; end of cycle 2) was 100%.
